Laboratory results as given in patent US20140128402A1, “PHARMACEUTICAL COMBINATION” (IPCA Laboratories Limited, priority 2011, published 2014).

System: STZ-induced diabetic rats
Test: Study No 1: blood glucose in STZ-induced diabetic rats (HCQ with sitagliptin)
Format: in vivo, Wistar rats
Description: In this experiment 48 Wistar rats weighing 130-150 g of either sex were divided randomly into 8 groups consisting of 6 rats each. The study drugs suspended in vehicle [0.1% w/v suspension of Tween 80 and carboxymethylcellulose (CMC) in water] were administered for orally for 21 days. Group 1 (normal vehicle control) consisted of normal rats that neither received streptozotocin nor any test drug; Group 2 served as streptozotocin induced diabetic control (Diabetes was induced in rats by single administration of streptozotocin (60 mg/kg/i.p) dissolved in 0.1 M-citrate buffer, pH 4.5). Forty-eight hours later, blood samples were collected and glucose levels were determined to confirm the development of diabetes.
Blood glucose level was measured in normal and experimental rats at 1st, 7th, 14th and 21st day of administration. For other biochemical parameters i.e. Insulin, HbA1c, Triglycerides, Total Cholesterol, HDL, SGOT, SGPT, Total Protein, Albumin, Creatinine and Urea Blood samples were collected 1 h after the last dose administration from 18 h fasted rats through the retro-orbital plexus under chloroform anesthesia and analyzed using autoanalyzer (Microlab 2000). Other parameters like body weight, food intake and water intake were evaluated weekly till day 21st.

`CCN(CCO)CCCC(C)Nc1ccnc2cc(Cl)ccc12` (stereo not drawn) [HCQ, Hydroxychloroquine] gave a Plasma glucose concentration (1st day, subtherapeutic dose: STG 5.5, HCQ 23, STG+HCQ 5.5+23 mg/kg oral) of 253.33 ± 24.86 mg/dL, a Plasma glucose concentration (1st day, therapeutic dose: STG 11, HCQ 46, STG+HCQ 11+46 mg/kg oral) of 267.83 ± 10.53 mg/dL and a Plasma glucose concentration (7th day, subtherapeutic dose: STG 5.5, HCQ 23, STG+HCQ 5.5+23 mg/kg oral) of 248.67 ± 24.63 mg/dL. It also gave a Plasma glucose concentration (7th day, therapeutic dose: STG 11, HCQ 46, STG+HCQ 11+46 mg/kg oral) of 243.83 ± 10.78 mg/dL, a Plasma glucose concentration (14th day, subtherapeutic dose: STG 5.5, HCQ 23, STG+HCQ 5.5+23 mg/kg oral) of 241.33 ± 24.73 mg/dL and a Plasma glucose concentration (14th day, therapeutic dose: STG 11, HCQ 46, STG+HCQ 11+46 mg/kg oral, 46 mg/kg) of 230.00 ± 12.96 mg/dL. For the same compound, the Plasma glucose concentration (14th day, therapeutic dose: STG 11, HCQ 46, STG+HCQ 11+46 mg/kg oral, listed as hydroxychloroquine, 46 mg/kg) was “significant improvement”, the Plasma glucose concentration (21st day, subtherapeutic dose: STG 5.5, HCQ 23, STG+HCQ 5.5+23 mg/kg oral) was 232.00 ± 19.92 mg/dL and the Plasma glucose concentration (21st day, therapeutic dose: STG 11, HCQ 46, STG+HCQ 11+46 mg/kg oral) was 207.67 ± 7.53 mg/dL.
